We go through 33 compounds from patent US20230044787A1, “TRICYCLE DIHYDROIMIDAZOPYRIMIDONE DERIVATIVE, PREPARATION METHOD THEREOF, PHARMACEUTICAL COMPOSITION AND USE THEREOF” (priority 2019, published 2023).

As usually defined, the IC50 is the concentration that gives 50% inhibition.

This assay deals with T1, Lp-PLA2 (Homo sapiens, UniProt Q13093).
T1 construct: aliquoted and thawed 40 μL of pooled human plasma was previously added; from tissue; host or cells: pooled human plasma
T1 sequence (Q13093 22-441): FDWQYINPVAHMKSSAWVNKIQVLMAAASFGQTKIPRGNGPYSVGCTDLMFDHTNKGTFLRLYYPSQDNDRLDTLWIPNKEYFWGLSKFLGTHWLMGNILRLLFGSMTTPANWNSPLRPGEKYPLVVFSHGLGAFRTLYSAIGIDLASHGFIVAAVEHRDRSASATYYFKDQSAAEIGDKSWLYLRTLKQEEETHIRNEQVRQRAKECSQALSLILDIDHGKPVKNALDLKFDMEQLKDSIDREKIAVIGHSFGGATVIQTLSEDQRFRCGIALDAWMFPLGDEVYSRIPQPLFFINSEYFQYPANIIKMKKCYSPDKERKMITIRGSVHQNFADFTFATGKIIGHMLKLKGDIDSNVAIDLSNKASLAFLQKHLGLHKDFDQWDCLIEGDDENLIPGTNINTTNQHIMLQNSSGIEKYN
Kind of assay: Lipoprotein-associated phospholipase A2 (Lp-PLA2) human plasma assay (Thio-PAF assay). The conditions noted are these: Lp-PLA2 human plasma assay (Thio-PAF), pooled human plasma, 30-min pre-incubation at room temperature. It is filed as biochemical.
Regarding `N#Cc1cc(F)cc(COc2cc3n(c(=O)n2)C[C@]24CO[C@H](CN32)C4)c1` [Example 141, 3-fluoro-5-((((3S,11aR)-9-oxo-3,4-dihydro-1H,9H,11H-3,11a-methanopyrimido[6′,1′:2,3]imidazo[5,1-c][1,4]oxazin-7-yl)oxy)methyl)benzonitrile], the IC50 worked out at 6.1 nM.
For the compound `COc1c(OCc2ccc(F)c(C#N)c2)nc(=O)n2c1N1C[C@@H]3C[C@]1(CO3)C2` [Example 142], the IC50 stood at 3.6 nM.
Consider `O=c1nc(OCc2cc(F)c(Oc3ccc(Cl)c(F)c3)c(F)c2)cc2n1C[C@]13CO[C@H](CN21)C3` [Example 143], for which the concentration for half-maximal inhibition (IC50) is 2.5 nM.
Consider `O=c1nc(OCc2cc(F)c(Oc3ccc(C(F)(F)F)cc3)c(F)c2)cc2n1C[C@]13CO[C@H](CN21)C3` [Example 144, (3S,11aR)-7-((3,5-difluoro-4-(4-(trifluoromethyl)phenoxy)benzyl)oxy)-3,4-dihydro-1H,9H,11H-3,11a-methanopyrimido[6′1′:2,3] imidazo[5,1-c][1,4]oxazin-9-one], for which the IC50 came out at 2.4 nM.
Consider `O=c1nc(OCc2cc(F)c(Oc3cccc(OC(F)(F)F)c3)c(F)c2)cc2n1C[C@]13CO[C@H](CN21)C3` [Example 145, (3S,11aR)-7-((3,5-difluoro-4-(3-(trifluoromethoxy)phenoxy)benzyl)oxy)-3,4-dihydro-1H,9H,11H-3,11a-methanopyrimido[6′,1′:2,3] imidazo[5,1-c][1,4]oxazin-9-one], for which the IC50 came out at 4.3 nM.
`O=c1nc(OCc2ccc(Oc3ccc(F)c(F)c3)c(F)c2)cc2n1C[C@]13CO[C@H](CN21)C3` [Example 146, (3S,11aR)-7-((4-(3,4-difluorophenoxy)-3-fluorobenzyl)oxy)-3,4-dihydro-1H,9H,11H-3,11a-methanopyrimido[6′,1′:2,3] imidazo[5,1-c][1,4]oxazin-9-one]: the IC50 is 2.7 nM.
The result for `O=c1nc(OCc2cc(F)c(Oc3ccc(F)cc3)c(F)c2)cc2n1C[C@]13CO[C@H](CN21)C3` [Example 147] reads 6.5 nM.
Regarding `O=c1nc(OCc2ccc(Oc3cncc(C(F)(F)F)c3)c(F)c2)cc2n1CC13CC(CN21)C3` [Example 148, 3-((3-fluoro-4-((5-(trifluoromethyl)pyridin-3-yl)oxy)benzyl)oxy)-7,8-dihydro-1H,6H,9H-7,8a-methanopyrrolo[1′,2′:3,4] imidazo[1,2-c]pyrimidin-1-one], the IC50 came out at 4.3 nM.
For the compound `O=c1nc(OCc2ccc(Oc3ccnc(C(F)(F)F)c3)c(F)c2)cc2n1CC13CCC(CC1)N23` [Example 149, 3-((3-fluoro-4-((2-(trifluoromethyl)pyridin-4-yl)oxy)benzyl)oxy)-7,8-dihydro-1H,6H,9H-6,8a-ethanopyrrolo[1′,2′:3,4] imidazo[1,2-c]pyrimidin-1-one], the IC50 turned out to be 4.1 nM.
Take `COc1c(OCc2ccc(F)c(F)c2)nc(=O)n2c1N1CC3CC1(C3)C2` [Example 150, 3-((3,4-difluorobenzyl)oxy)-4-methoxy-7,8-dihydro-1H,6H,9H-7,8a-methanopyrrolo[1′,2′:3,4] imidazo[1,2-c]pyrimidin-1-one]: the IC50 amounted to 4.8 nM.
The result for `COc1c(OCc2cc(F)c(F)c(F)c2)nc(=O)n2c1N1CC3CC1(C3)C2` [Example 151] reads 5.7 nM.
With `O=c1nc(OCc2ccc(Oc3ccnc(C(F)(F)F)c3)c(F)c2)cc2n1CC13CCC(COC1)N23` (stereo not drawn) [Example 152, 7-((3-fluoro-4-((2-(trifluoromethyl)pyridin-4-yl)oxy)benzyl)oxy)-3,4-dihydro-1H,9H,11H-4,11a-ethanopyrimido[6′,1′:2,3] imidazo[5,1-c][1,4]oxazin-9-one], the IC50 stood at 3.9 nM.
In the case of `O=c1nc(OCc2ccc(Oc3ccnc(OC(F)(F)F)c3)c(F)c2)cc2n1CC13CC(CN21)C3` [Example 153], the IC50 was 4.1 nM.
In the case of `O=c1nc(OCc2ccc(Oc3ccnc(OC(F)(F)F)c3)c(F)c2)cc2n1CC13CCC(CC1)N23` [Example 154, 3-((3-fluoro-4-((2-(trifluoromethoxy)pyridin-4-yl)oxy)benzyl)oxy)-7,8-dihydro-1H,6H,9H-6,8a-ethanopyrrolo[1′,2′:3,4] imidazo[1,2-c]pyrimidin-1-one], the IC50 came out at 3.6 nM.
As to `O=c1nc(OCc2ccc(Oc3ccnc(Cl)c3)c(F)c2)cc2n1CC13CC(CN21)C3` [Example 155], the 50% inhibitory concentration (IC50) was 3.7 nM.
The result for `O=c1nc(OCCc2ccc(Oc3ccnc(C(F)(F)F)c3)c(F)c2)cc2n1C[C@]13CO[C@H](CN21)C3` [Example 156] reads 5.7 nM.
Turning to `O=c1nc(OCc2ccc(Oc3ccnc(C(F)(F)F)c3)c(F)c2)cc2n1CC13CC(F)(CN21)C3` [Example 157, 7-fluoro-3-((3-fluoro-4-((2-(trifluoromethyl)pyridin-4-yl)oxy)benzyl)oxy)-7,8-dihydro-1H,6H,9H-7,8a-methanopyrrolo[1′,2′:3,4] imidazo[1,2-c]pyrimidin-1-one], the IC50 came out at 3.9 nM.
Under `O=c1nc(OCc2cc(F)c(Oc3ccnc(C(F)(F)F)c3)c(F)c2)cc2n1CC13CC(F)(CN21)C3` [Example 158, 3-((3,5-difluoro-4-((2-(trifluoromethyl)pyridin-4-yl)oxy)benzyl)oxy)-7-fluoro-7,8-dihydro-1H,6H,9H-7,8a-methanopyrrolo[1′,2′:3,4] imidazo[1,2-c]pyrimidine-1-one] stands 2.1 nM; under `N#Cc1cc(F)cc(COc2cc3n(c(=O)n2)CC24CC(F)(CN32)C4)c1` [Example 159], 128 nM; under `N#Cc1cc(COc2cc3n(c(=O)n2)CC24CC(F)(CN32)C4)ccc1F` [Example 160], 3.8 nM.
Under `O=c1nc(OCc2ccc(Oc3ccnc(C(F)F)c3)cc2)cc2n1CC13CC(CN21)C3` [Example 161] stands 18.1 nM.
On to `O=c1nc(OCc2ccc(Oc3ccnc(C(F)F)c3)c(F)c2)cc2n1CC13CC(CN21)C3` [Example 162], for which the IC50 came out at 6.5 nM.
On to `N#Cc1cc(COc2cc3n(c(=O)n2)CC24CCC(CC2)N34)ccc1F` [Example 163, 2-fluoro-5-(((1-oxo-7,8-dihydro-1H,6H,9H-6,8a-ethanopyrrolo[1′,2′:3,4]imidazo[1,2-c]pyrimidin-3-yl)oxy)methyl)benzonitrile], for which the IC50 turned out to be 2.4 nM.
With `O=c1nc(OCc2ccc(Oc3ccnc(C(F)(F)F)c3)c(F)c2)c(C(F)(F)F)c2n1C[C@]13CO[C@H](CN21)C3` [Example 164, (3S,11aR)-7-((3-fluoro-4-((2-(trifluoromethyl)pyridin-4-yl)oxy)benzyl)oxy)-6-(trifluoromethyl)-3,4-dihydro-1H,9H,11H-3,11a-methanopyrimido[6′,1′:2,3] imidazo[5,1-c][1,4]oxazin-9-one], the IC50 turned out to be 1.5 nM.
The result for `O=c1nc(OCc2ccc(Oc3ccnc(C(F)(F)F)c3)c(F)c2)cc2n1CC13CC(CCN21)C3` [Example 165, 3-((3-fluoro-4-((2-(trifluoromethyl)pyridin-4-yl)oxy)benzyl)oxy)-6,7,8,9-tetrahydro-1H,10H-8,9a-methano-pyrido[1′,2′:3,4] imidazo[1,2-c]pyrimidin-1-one] reads 3.1 nM; that for `O=c1nc(OCc2ccc(Oc3ccnc(C(F)(F)F)c3)c(F)c2)cc2n1CC13CC(CN4CCOCC4)(CN21)C3` [Example 166, 3-((3-fluoro-4-((2-(trifluoromethyl)pyridin-4-yl)oxy)benzyl)oxy)-7-(morpholinomethyl)-7,8-dihydro-1H,6H,9H-7,8a-methanopyrrolo[1′,2′:3,4] imidazo[1,2-c]pyrimidin-1-one], 5.8 nM; that for `CN1C(=O)[C@]23C[C@H]1CN2c1cc(OCc2cc(F)c(Oc4cnn(C)c4)c(F)c2)nc(=O)n1C3` [Example 167, (3S,11aR)-7-((3,5-difluoro-4-((1-methyl-1H-pyrazol-4-yl)oxy)benzyl)oxy)-2-methyl-3,4-dihydro-9H,11H-3,11a-methanopyrazino[1′,2′:3,4] imidazo[1,2-c]pyrimidine-1,9(2H)-dione], 19.4 nM.
The result for `CN1C(=O)[C@]23C[C@H]1CN2c1cc(OCc2ccc(Oc4ccc(Cl)c(C(F)(F)F)c4)c(C#N)c2)nc(=O)n1C3` [Example 168] reads 3.6 nM; that for `O=c1nc(OCCc2cc(F)c(Oc3ccnc(C(F)(F)F)c3)c(F)c2)cc2n1CC13CC(CN21)C3` [Example 169, 3-(3,5-Difluoro-4-((2-(trifluoromethyl)pyridin-4-yl)oxy)phenethoxy)-7,8-dihydro-1H1,6H1,9H-7,8a-methanopyrrolo[1′, 2′:3, 4]imidazo[1,2-c]pyrimidin-1-one], 4.9 nM.
Regarding `COc1c(CCc2ccc(Oc3ccnc(C(F)(F)F)c3)cc2)nc(=O)n2c1N1C[C@@H]3C[C@]1(CO3)C2` [Example 170, (3S,11aR)-6-Methoxy-7-(4-((2-(trifluoromethyl)pyridin-4-yl)oxy)phenethyl)-3,4-dihydro-1H,9H,11H-3,11a-methanopyrimido[6′,1′:2,3]imidazo[5,1-c] [1,4]oxazin-9-one], the half-maximal inhibitory concentration (IC50) came to 178 nM.
Turning to `CN1C[C@]23C[C@H]1CN2c1cc(OCc2ccc(Oc4ccnc(C(F)(F)F)c4)c(F)c2)nc(=O)n1C3` [Example 171, (3S,11aS)-7-((3-Fluoro-4-((2-(trifluoromethyl)pyridin-4-yl)oxy)benzyl)oxy)-2-methyl-1,2,3,4-tetrahydro-9H,11H-3,11a-methanopyrazino[1′, 2′:3, 4]imidazo[1,2-c]pyrimidin-9-one], the IC50 was found to be 2.1 nM.
For the compound `O=c1nc(OCc2ccc(Oc3ccnc(C(F)(F)F)c3)c(F)c2)cc2n1C[C@@]13C[C@@H](CN21)N(C1COC1)C3` [Example 172], the IC50 came out at 2.2 nM.
Regarding `O=c1nc(OCc2ccc(Oc3ccnc(C(F)(F)F)c3)c(F)c2)cc2n1C[C@@]13C[C@@H](CN21)N(CC(F)(F)F)C3` [Example 173], the IC50 is 3.4 nM.
